For 2 molecules, Activity and IC50 results are on record in ChEMBL document CHEMBL5154747, “Discovery of new carbonic anhydrase IX inhibitors as anticancer agents by toning the hydrophobic and hydrophilic rims of the active site to encounter the dual-tail approach” (Eur J Med Chem, 2022).

pIC50: −log10 of the molar value. Activity calls are given as the source filed them. The calls are words filed in the database; no cut-off is given here.

By pIC50 is commonly meant −log10 of the IC50, conventionally taken in molar units.

For data set [1], the system named is SK-MEL-5. The data set can be described thus: Induction of cell cycle arrest in human SK-MEL-5 cells assessed as cell aggregates at 10 uM incubated for 24 hrs by FACSCalibur flow cytometry analysis (reference value: 1.79%). Type of data set: functional. On the technique in general: A flow cytometer gives signals particle by particle.
The subject of data set [2] is SK-MEL-5. The data set can be described thus: Induction of cell cycle arrest in human SK-MEL-5 cells assessed as accumulation of diploid cells at S phase at 10 uM incubated for 24 hrs by FACSCalibur flow cytometry analysis (reference value: 17.55%). Type of data set: functional.
For the next data set, the system named is RXF 393. As to the kind of experiment: Cytotoxicity against human RXF 393 cells assessed as inhibition of cell viability incubated for 72 hrs under hypoxia condition by MTT assay. It counts as functional, cell-based. The conditions noted are these: RXF 393, 72 h. Background: Formazan colour is commonly taken as a measure of viable cells.
The subject of data set [3] is SK-MEL-5. As to the kind of experiment: Induction of cell cycle arrest in human SK-MEL-5 cells assessed as cell debris at 10 uM incubated for 24 hrs by FACSCalibur flow cytometry analysis (reference value: 1.38%). It counts as functional.
The subject of data set [4] is SK-MEL-5. As to the kind of experiment: Induction of apoptosis in human SK-MEL-5 cells assessed as necrotic cells at 10 uM incubated for 24 hrs by Annexin-V/FITC and PI staining based flow cytometry analysis (reference value: 1.56 %). Type of data set: functional.
Data set [5] relates to SK-MEL-5. The data set can be described thus: Induction of cell cycle arrest in human SK-MEL-5 cells assessed as accumulation at pre G1 phase at 10 uM incubated for 24 hrs by FACSCalibur flow cytometry analysis (reference value: 2.43%). Type of data set: functional.
The test system of data set [6] is SK-MEL-5. The data set can be described thus: Induction of apoptosis in human SK-MEL-5 cells assessed as early apoptotic cells at 10 uM incubated for 24 hrs by Annexin-V/FITC and PI staining based flow cytometry analysis (reference value: 0.61 %). It counts as functional.
The test system of data set [7] is SK-MEL-5. The data set can be described thus: Induction of apoptosis in human SK-MEL-5 cells assessed as caspase 3 activation incubated for 24 hrs by Western blotting analysis. It counts as functional, cell-based. On the technique in general: In western blotting, separated proteins are transferred to a membrane and probed.
Data set [8] relates to SK-MEL-5. As to the kind of experiment: Induction of apoptosis in human SK-MEL-5 cells assessed as late apoptotic cells at 10 uM incubated for 24 hrs by Annexin-V/FITC and PI staining based flow cytometry analysis (reference value: 0.26 %). Type of data set: functional.
The test system of data set [9] is SK-MEL-5. The data set can be described thus: Induction of ROS generation in human SK-MEL-5 cells assessed as increase in intracellular ROS level incubated for 1 hrs by H2DCFDA probe based fluorometry analysis relative to control. Type of data set: functional.
Data set [10] is described as follows: Cytotoxicity against human HEK293 cells assessed as inhibition of cell viability by MTT assay.
The test system of the next data set is HCC 2998. As to the kind of experiment: Cytotoxicity against human HCC 2998 cells assessed as inhibition of cell viability incubated for 72 hrs under hypoxia condition by MTT assay. Type of data set: functional, cell-based. The conditions noted are these: HCC 2998, 72 h.
Data set [11] relates to SK-MEL-5. The data set can be described thus: Cytotoxicity against human SK-MEL-5 cells assessed as inhibition of cell viability incubated for 72 hrs under hypoxia condition by MTT assay. Type of data set: functional, cell-based. The conditions noted are these: SK-MEL-5, 72 h.
Data set [12] concerns SK-MEL-5. As to the kind of experiment: Induction of cell cycle arrest in human SK-MEL-5 cells assessed as accumulation of diploid cells at G2/M phase at 10 uM incubated for 24 hrs by FACSCalibur flow cytometry analysis (reference value: 13.22%). Type of data set: functional.
Data set [13] relates to SK-MEL-5. As to the kind of experiment: Induction of apoptosis in human SK-MEL-5 cells assessed as caspase 9 activation incubated for 24 hrs by Western blotting analysis. Type of data set: functional, cell-based.
The test system of data set [14] is SK-MEL-5. As to the kind of experiment: Induction of cell cycle arrest in human SK-MEL-5 cells assessed as accumulation of diploid cells at G1 phase at 10 uM incubated for 24 hrs by FACSCalibur flow cytometry analysis (reference value: 69.23%). Type of data set: functional.

For the molecule `NS(=O)(=O)c1ccc(Nc2nc(N/N=C/c3ccccn3)nc(Nc3ccccc3)n2)cc1`, the Activity in the data set on SK-MEL-5 [1] was 1.85%; with SK-MEL-5 [2] it was 32.41%; with SK-MEL-5 [3], 1.42%; in the data set on SK-MEL-5 [4] it was 7.99%; with SK-MEL-5 [5], 37.24%; in the data set with SK-MEL-5 [6], 4.28%. For the same molecule, the Activity stood at 24.97% in the data set with SK-MEL-5 [8], 23% in the data set on SK-MEL-5 [9], 8.81% in the data set with SK-MEL-5 [12] and 58.78% with SK-MEL-5 [14]. Further, the pIC50 in the data set with RXF 393 is 5.51; in data set [10] it was 4.34; with HCC 2998, 5.71; with SK-MEL-5 [11], 5.08. Besides, the outcome with SK-MEL-5 [7] and in the data set with SK-MEL-5 [13] was Active.

In the case of `CN(C)c1ccc(/C=N/Nc2nc(Nc3ccccc3)nc(Nc3ccc(S(N)(=O)=O)cc3)n2)cc1`, the pIC50 in the data set on RXF 393 is 5.14; in data set [10], 4.40.
